Molecular target: glutaminyl cyclase (QC) (Homo sapiens, UniProt Q16769)
Experiment: QC inhibitor assay (fluorometric / spectrophotometric QC activity assays with inhibitor added)
Assay type: biochemical
Settings: QC inhibition, 30° C.; for Ki: fit to competitive inhibition
Experimental: All measurements were performed with a BioAssay Reader HTS-7000Plus for microplates (Perkin Elmer) at 30° C. QC activity was evaluated fluorometrically using […]. The samples consisted of 0.2 mM fluorogenic substrate, 0.25 U pyroglutamyl aminopeptidase (Unizyme, Horsholm, Denmark) in 0.2 M Tris/HCl, pH 8.0 containing 20 mM EDTA and an appropriately diluted aliquot of QC in a final volume of 250 μl. Excitation/emission wavelengths were 320/410 nm. The assay reactions were initiated by addition of glutaminyl cyclase. QC activity was determined from a standard curve of β-naphthylamine under assay conditions. One unit is defined as the amount of QC catalyzing the formation of 1 μmol pGlu-βNA from H-Gln-βNA per minute under the described conditions.
In a second fluorometric assay, QC was activity determined using H-Gln-AMC as substrate. Reactions were carried out at 30° C. utilizing the NOVOStar reader for microplates (BMG labtechnologies). The samples consisted of varying concentrations of the fluorogenic substrate, 0.1 U pyroglutamyl aminopeptidase (Qiagen) in 0.05 M Tris/HCl, pH 8.0 containing 5 mM EDTA and an appropriately diluted aliquot of QC in a final volume of 250 μl. Excitation/emission wavelengths were 380/460 nm. The assay reactions were initiated by addition of glutaminyl cyclase. QC activity was determined from a standard curve of 7-amino-4-methylcoumarin under assay conditions. The kinetic data were evaluated using GraFit software.
This novel assay was used to determine the kinetic parameters for most of the QC substrates. […] Samples consisted of the respective QC substrate, 0.3 mM NADH, 14 mM α-Ketoglutaric acid and 30 U/ml glutamate dehydrogenase in a final volume of 250 μl. Reactions were started by addition of QC and persued by monitoring of the decrease in absorbance at 340 nm for 8-15 min.
The initial velocities were evaluated and the enzymatic activity was determined from a standard curve of ammonia under assay conditions. All samples were measured at 30° C., using either the […]luor Plus or the Sunrise (both from TECAN) reader for microplates. Kinetic data was evaluated using GraFit software.
For inhibitor testing, the sample composition was the same as described above, except of the putative inhibitory compound added. For a rapid test of QC-inhibition, samples contained 4 mM of the respective inhibitor and a substrate concentration at 1 KM. For detailed investigations of the inhibition and determination of Ki-values, influence of the inhibitor on the auxiliary enzymes was investigated first. […] The inhibitory constant was evaluated by fitting the set of progress curves to the general equation for competitive inhibition using GraFit software.

Sequence of glutaminyl cyclase (QC) (Q16769 29-361): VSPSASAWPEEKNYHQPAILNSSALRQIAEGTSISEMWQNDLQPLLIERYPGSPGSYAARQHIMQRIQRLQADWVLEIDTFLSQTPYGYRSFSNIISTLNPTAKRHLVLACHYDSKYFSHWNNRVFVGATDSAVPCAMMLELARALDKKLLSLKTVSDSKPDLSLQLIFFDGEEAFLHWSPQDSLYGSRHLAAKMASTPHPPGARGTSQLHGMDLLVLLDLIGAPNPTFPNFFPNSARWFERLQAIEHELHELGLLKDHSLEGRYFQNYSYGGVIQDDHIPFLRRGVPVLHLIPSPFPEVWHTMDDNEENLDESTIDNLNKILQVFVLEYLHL

| IC50 | Ki | SMILES |
| --- | --- | --- |
| 9.17 µM | 1.19 µM | c1cc(-c2ccc3c(c2)OCCO3)c2cncn2c1 [Example 25, 8-(2,3-dihydrobenzo[b][1,4]dioxin-7-yl)H-imidazo[1,5-a]pyridine] |
| 29.2 µM | 3.46 µM | c1cc(-c2ccc3c(c2)OCO3)c2cncn2c1 [Example 23, 8-(benzo[d][1,3]dioxol-6-yl)H-imidazo[1,5-a]pyridine] |
| 18.9 µM | 5.5 µM | c1ccc(Cc2cccn3cncc23)cc1 [Example 2, 8-benzylH-imidazo[1,5-a]pyridine] |
| 10.6 µM | 1.87 µM | Fc1ccc(-c2cccn3cncc23)cc1 [Example 7, 8-(4-fluorophenyl)H-imidazo[1,5-a]pyridine] |
| 23.6 µM | 5.38 µM | c1ccc(COc2ccccc2-c2cccn3cncc23)cc1 [Example 15, 8-(2-(benzyloxy)phenyl)H-imidazo[1,5-a]pyridine] |
| 4.36 µM | 0.75 µM | c1ccc(COc2ccc(-c3cccn4cncc34)cc2)cc1 [Example 17, 8-(4-(benzyloxy)phenyl)H-imidazo[1,5-a]pyridine] |
| 36.5 µM | 11 µM | c1ccc(-c2ccccc2-c2cccn3cncc23)cc1 [Example 18, 8-(biphen-2-yl)H-imidazo[1,5-a]pyridine] |
| 13.6 µM | 3.98 µM | COc1ccccc1-c1cccn2cncc12 [Example 12, 8-(2-methoxyphenyl)H-imidazo[1,5-a]pyridine] |
| 10.9 µM | 2.51 µM | c1ccc(-c2cccc(-c3cccn4cncc34)c2)cc1 [Example 19, 8-(biphen-3-yl)H-imidazo[1,5-a]pyridine] |
| 20.6 µM | 3.14 µM | Fc1ccccc1-c1cccn2cncc12 [Example 5, 8-(2-fluorophenyl)H-imidazo[1,5-a]pyridine] |
| 47.7 µM | 15.2 µM | Clc1ccccc1-c1cccn2cncc12 [Example 8, 8-(2-chlorophenyl)H-imidazo[1,5-a]pyridine] |
| 14.3 µM | 1.89 µM | CCOc1ccc(-c2cccn3cncc23)cc1 [Example 22, 8-(4-ethoxyphenyl)H-imidazo[1,5-a]pyridine] |
| 13.2 µM | 3.7 µM | CCCCc1cccn2cncc12 [Example 1, 8-butylH-imidazo[1,5-a]pyridine] |
| 26.4 µM | 2.66 µM | COc1ccc(-c2cccn3cncc23)cc1C [Example 24, 8-(4-methoxy-3-methylphenyl)H-imidazo[1,5-a]pyridine] |
| 27.4 µM | 4.92 µM | COc1c(C)cc(-c2cccn3cncc23)cc1C [Example 27, 8-(4-methoxy-3,5-dimethylphenyl)H-imidazo[1,5-a]pyridine] |
| 20.6 µM | 2.13 µM | c1ccc(-c2ccc(-c3cccn4cncc34)cc2)cc1 [Example 20, 8-(biphen-4-yl)H-imidazo[1,5-a]pyridine] |
| 5.51 µM | 1.11 µM | Clc1ccc(-c2cccn3cncc23)cc1 [Example 10, 8-(4-chlorophenyl)H-imidazo[1,5-a]pyridine] |
| 9.71 µM | 2.02 µM | Fc1cccc(-c2cccn3cncc23)c1 [Example 6, 8-(3-fluorophenyl)H-imidazo[1,5-a]pyridine] |
| 17.2 µM | 2.25 µM | Clc1cccc(-c2cccn3cncc23)c1 [Example 9, 8-(3-chlorophenyl)H-imidazo[1,5-a]pyridine] |
| 8.22 µM | 1.3 µM | c1ccc(-c2cccn3cncc23)cc1 [Example 4, 8-phenylH-imidazo[1,5-a]pyridine] |
| 6.19 µM | 1.1 µM | COc1cccc(-c2cccn3cncc23)c1 [Example 13, 8-(3-methoxyphenyl)H-imidazo[1,5-a]pyridine] |
| 20 µM | 3.7 µM | CC(C)Cc1cccn2cncc12 [Example 3, 8-isobutylH-imidazo[1,5-a]pyridine] |
| 36.5 µM | 14.5 µM | FC(F)(F)Oc1ccccc1-c1cccn2cncc12 [Example 21, 8-(2-(trifluoromethoxy)phenyl)H-imidazo[1,5-a]pyridine] |
| 15.4 µM | 9.38 µM | COc1ccc(-c2cccn3cncc23)cc1OC [Example 26, 8-(3,4-dimethoxyphenyl)H-imidazo[1,5-a]pyridine] |
| 7.81 µM | 1.48 µM | c1ccc(COc2cccc(-c3cccn4cncc34)c2)cc1 [Example 16, 8-(3-(benzyloxy)phenyl)H-imidazo[1,5-a]pyridine] |

— patent US7803810B2, “Inhibitors” (Probiodrug AG, priority 2007, dated 2010)
